Assay results as given in patent publication US20250064707A1, “PEPTIDE HAVING ANTI-AGING ACTIVITY, AND USE THEREOF” (CAREGEN CO., LTD., priority 2021, published 2025).

Assays:
[1] = test system: HaCaT cells; assay: Western blot of apoptotic-inducing factors (cleaved PARP-1, cleaved Caspase-3) increased by UVB irradiation; assay type: cell-based, human; conditions: peptide 10, 50, 100 μM, 15 J/cm^2 UVB, 24 hours
Protocol: Expression of the apoptotic-inducing factors increases when irradiated with UV. Therefore, it was confirmed whether the photoaging phenomenon of the cells was inhibited and the damaged cells were regenerated by confirming whether the increased expression levels of the apoptotic-inducing factors such as cleaved PARP-1 and cleaved Caspase-3 decreased again when treated with the peptide of the present invention.
(§1) First, HaCaT cells were seeded in a 6-well plate at a cell density of 5×10^5 cell/well, and then the cells were cultured in DMEM medium containing 10% fetal bovine serum (FBS) for 24 hours. The cultured cells were washed once with serum free DMEM medium, and then the peptide of the present invention was mixed in 1 mL of the serum free DMEM medium at each of concentrations of 10, 50, and 100 μM, and dispensed into the cells. A positive control (PC) was treated with 2.5 mM of N-acetylcysteine (NaC) instead of the above peptide.
The cells were cultured in a CO2 incubator at 37° C. for 1 hour, the medium of the cultured cells was transferred to a tube, 1 mL of PBS was added, and then irradiation was performed with 15 J/cm^2 of UVB using a UV irradiator (VILBER LOURMAT, Cat No.: 3102-BSU, France). After removing PBS, 900 μL of the medium transferred to the tube was added again, and culture was performed in a CO2 incubator at 37° C. for 24 hours. […]

[2] = test system: NIH3T3 cells (mouse fibroblast cell line); assay: RT-PCR expression of ECM component genes (Col1a1, fibronectin, elastin) in fibroblasts; assay type: cell-based; conditions: peptide 10, 50, 100 μM, 24 hours, RT-PCR vs GAPDH
Protocol: First, NIH3T3 cells (mouse fibroblast cell line) were seeded in a 6-well plate at a cell density of 5×10^5 cell/well, and then the cells were cultured in DMEM medium containing 10% fetal bovine serum (FBS) for 24 hours. The cultured cells were washed once with serum free DMEM medium, and the peptide of the present invention was mixed in 1 mL of the serum free DMEM medium at each of concentrations of 10, 50, and 100 μM, and dispensed into the cells. A positive control (PC) was treated with 100 nM of bFGF instead of the above peptide. The cells were cultured in a CO2 incubator at 37° C. for 24 hours.
The cultured cells were washed twice with PBS, and RNA was extracted from the cells using easy blue (iNtRON, Cat. No.: 17061, Korea). The extracted RNA was subjected to RT-PCR using an RNA kit (enzynomics, Cat. No.: P581T, Korea). The sequences of the primers of collagen (Col1a1), fibronectin, and elastin used in RT-PCR and the sequence of the primer of GAPDH used to compare the total RNA amount of each treatment group are shown in [Table 2].

[3] = test system: NIH3T3 cells; assay: Collagen ELISA and hyaluronic acid ELISA of culture medium, fibroblasts; assay type: cell-based, mouse; conditions: peptide 50 μM, 100 μM, 72 hours
Protocol: (§2) First, NIH3T3 cells and HaCaT cells (human keratinocyte cell line) were seeded in a 24-well plate at a cell density of 1×10^4 cell/well, and then the cells were cultured in DMEM medium containing 10% fetal bovine serum (FBS) for 24 hours. The cultured cells were washed once with serum free DMEM medium, and the peptide of the present invention was mixed in 2 mL of the serum free DMEM medium at each of concentrations of 50 μM, 100 μM, and 5 ng/ml, and dispensed into three wells by 500 μL per condition. The NIH3T3 cells were treated with 5 ng/ml of TGF-β1 instead of the above peptide as a positive control (PC). The HaCaT cells were treated with 100 nM of IGF-1 instead of the above peptide as a PC. The cells were cultured in a CO2 incubator at 37° C. for 72 hours.
(§3) The medium of the cultured NIH3T3 and HaCaT cells was centrifuged to settle a suspended matter, a supernatant was transferred to an e-tube, and then each of ELISA (abcam, Cat No.: ab210579, UK) and hyaluronic acid (HA) ELISA (ECHELON biosciences, Cat No.: K-1200, USA) was performed using the same.

[4] = test system: HaCaT cells (human keratinocyte cell line); assay: Collagen ELISA and hyaluronic acid ELISA of culture medium, keratinocytes; assay type: cell-based; conditions: peptide 50 μM, 100 μM, 72 hours
Protocol: as §2, §3

[5] = test system: HaCaT cells; assay: RT-PCR expression of SIRT1 and AQP3 decreased by UVB irradiation; assay type: cell-based, human; conditions: peptide 10, 50, 100 μM, 15 J/cm^2 UVB, 24 hours
Protocol: The expression of genes related to the skin barrier strengthening function is inhibited when irradiated with UV.
as §1, with “3×10^5” for “5×10^5”, “peptide. The cells were cultured in a CO2 incubator at 37° C. for 1 hour.” for “peptide.”
The cultured cells were washed twice with PBS, 1 ml of PBS was added, and irradiation was performed with 15 J/cm^2 of UVB using a UV irradiator (VILBER LOURMAT, Cat No.: 3102-BSU, France). After removing PBS, 900 μL of the medium transferred to the tube was dispensed, and culture was performed in a CO2 incubator at 37° C. for 24 hours. The cultured cells were washed twice with PBS, and then RNA was extracted from the cells using easy blue (iNtRON, Cat. No.: 17061, Korea). The extracted RNA was subjected to an RT reaction using an RNA kit (enzynomics, Cat. No.: P581T, Korea). Thereafter, RT-PCR was performed using a PCR kit (enzynomics, Cat. No.: R581T, Korea). […]

[6] = test system: HaCaT cells; assay: Intracellular reactive oxygen species after UVB irradiation (DCFH-DA, FACS); assay type: cell-based, human; conditions: peptide 10, 50, 100 μM, 1 hour before 15 J/cm^2 UVB, 24 hours after
Protocol: The reactive oxygen species level increases when UV is irradiated. Therefore, it was confirmed whether the reactive oxygen species level decreased again and the aging phenomenon caused by oxidative stress in cells was inhibited when treated with the peptide of the present invention.
as §1, with “25 μM” for “2.5 mM”, “Trolox” for “N-acetylcysteine (NaC)”
The cells were cultured in a CO2 incubator at 37° C. for 1 hour. The medium of the cultured cells was transferred to a tube, 1 ml of PBS was added, and irradiation was performed with 15 J/cm^2 of UVB using a UV irradiator (VILBER LOURMAT, Cat No.: 3102-BSU, France). After removing PBS, 900 μL of the medium transferred to the tube was dispensed, and culture was performed in a CO2 incubator at 37° C. for 24 hours. […] After centrifugation, the cells were washed with PBS, and a fluorescence value was measured through FACS.

[7] = test system: HaCaT cells; assay: RT-PCR expression of skin barrier genes (SIRT1, AQP3) in keratinocytes; assay type: cell-based, human; conditions: peptide 10, 50, 100 μM, 24 hours
Protocol: First, HaCaT cells were seeded in a 6-well plate at a cell density of 3×10^5 cell/well, and then the cells were cultured in DMEM medium containing 10% fetal bovine serum (FBS) for 24 hours. The cultured cells were washed once with serum free DMEM medium, and then the peptide of the present invention was mixed in 1 mL of the serum free DMEM medium at each of concentrations of 10, 50, and 100 μM, and dispensed into the cells. A positive control (PC) was treated with 100 nM of EGF instead of the above peptide. The cells were cultured in a CO2 incubator at 37° C. for 24 hours.
The cultured cells were washed twice with PBS, and then RNA was extracted from the cells using easy blue (iNtRON, Cat. No.: 17061, Korea). The extracted RNA was subjected to RT reaction using a kit (enzynomics, Cat. No.: RT200, Korea). Thereafter, RT-PCR was performed using a PCR kit (enzynomics, Cat. No.: R581T, Korea). The sequences of the primers of SIRT1 and AQP3 used in RT-PCR are shown in [Table 3]. The sequence of the primer of GAPDH used to compare the total RNA amount of each treatment group is shown in [Table 2].

EYIPNRVCRR [SEQ ID NO: 1]
expression of Cleaved Caspase-3 increased by UV irradiation [1]: inhibited the expression
expression of Cleaved PARP-1 increased by UV irradiation [1]: inhibited the expression
expression of the Col1a1 gene [2]: gradually increased as a concentration of the peptide increased
expression of the elastin gene [2]: gradually increased as a concentration of the peptide increased
expression of the fibronectin gene [2]: gradually increased as a concentration of the peptide increased
amount of collagen protein ([3]; ELISA of medium (FIG. 2A)): gradually increased as a concentration of the peptide increased
amount of hyaluronic acid ([3]; HA ELISA of medium (FIG. 2A)): gradually increased as a concentration of the peptide increased
amount of collagen protein ([4]; ELISA of medium (FIG. 2B)): gradually increased as a concentration of the peptide increased
amount of hyaluronic acid ([4]; HA ELISA of medium (FIG. 2B)): gradually increased as a concentration of the peptide increased
mRNA level of AQP3 decreased by UV irradiation [5]: increased again
mRNA level of SIRT1 decreased by UV irradiation [5]: increased again
intracellular reactive oxygen species level increased by UV irradiation [6]: decreased
mRNA level of AQP3 [7]: increased
mRNA level of SIRT1 [7]: increased
